Data published in ChEMBL document CHEMBL1781976, “Synthesis of 7,9-diazabicyclo[4.2.2]decanes as conformationally restricted κ receptor agonists: fine tuning of the dihedral angle of the ethylenediamine pharmacophore” (Eur J Med Chem, 2011).

Tests used:
[1] = molecular target: Kappa-type opioid receptor (Cavia porcellus, UniProt P41144); experiment: Displacement of [3H]U69593 from kappa opioid receptor in guinea pig brain membranes after 150 mins by scintillation counting; format: cell membranes, Membrane
Kappa-type opioid receptor (Cavia porcellus, UniProt P41144), sequence (P41144 whole entry): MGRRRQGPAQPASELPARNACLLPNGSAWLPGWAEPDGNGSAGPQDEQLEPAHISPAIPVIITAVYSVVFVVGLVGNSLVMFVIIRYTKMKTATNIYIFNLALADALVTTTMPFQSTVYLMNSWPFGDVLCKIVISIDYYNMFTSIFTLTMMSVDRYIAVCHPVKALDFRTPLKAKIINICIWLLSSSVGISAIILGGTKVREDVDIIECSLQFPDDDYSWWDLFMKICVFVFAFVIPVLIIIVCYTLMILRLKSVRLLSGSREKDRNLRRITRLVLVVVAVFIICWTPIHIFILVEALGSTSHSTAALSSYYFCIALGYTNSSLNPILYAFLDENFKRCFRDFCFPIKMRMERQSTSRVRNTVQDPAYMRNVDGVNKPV

Mu-type opioid receptor = Mu-type opioid receptor (Cavia porcellus, UniProt P97266); experiment: Displacement of [3H]DAMGO from mu opioid receptor in guinea pig brain membranes; format: cell membranes, Membrane
Mu-type opioid receptor, sequence (P97266 whole entry): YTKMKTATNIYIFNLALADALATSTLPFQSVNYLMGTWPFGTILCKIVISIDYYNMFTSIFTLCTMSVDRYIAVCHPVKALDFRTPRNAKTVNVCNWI

[2] = molecular target: Delta-type opioid receptor (Rattus norvegicus, UniProt P33533); experiment: Displacement of [3H]DPDPE from delta opioid receptor in rat brain membranes; format: cell membranes
Delta-type opioid receptor, sequence (P33533 whole entry): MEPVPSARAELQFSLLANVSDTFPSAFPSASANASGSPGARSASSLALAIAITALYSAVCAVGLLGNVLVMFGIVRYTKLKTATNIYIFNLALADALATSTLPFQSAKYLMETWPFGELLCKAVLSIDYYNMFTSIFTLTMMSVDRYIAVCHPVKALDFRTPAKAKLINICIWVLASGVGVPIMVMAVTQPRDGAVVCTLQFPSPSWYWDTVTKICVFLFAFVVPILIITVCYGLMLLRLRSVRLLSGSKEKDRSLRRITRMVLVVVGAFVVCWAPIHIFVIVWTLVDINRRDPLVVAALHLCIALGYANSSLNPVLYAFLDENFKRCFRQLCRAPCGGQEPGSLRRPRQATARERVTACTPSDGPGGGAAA

[3] = molecular target: Sigma non-opioid intracellular receptor 1 (Cavia porcellus, UniProt Q60492); experiment: Displacement of [3H]-(+)-pentazocine from sigma 1 receptor in guinea pig brain membranes; format: cell membranes, Membrane
Sigma non-opioid intracellular receptor 1, sequence (Q60492 whole entry): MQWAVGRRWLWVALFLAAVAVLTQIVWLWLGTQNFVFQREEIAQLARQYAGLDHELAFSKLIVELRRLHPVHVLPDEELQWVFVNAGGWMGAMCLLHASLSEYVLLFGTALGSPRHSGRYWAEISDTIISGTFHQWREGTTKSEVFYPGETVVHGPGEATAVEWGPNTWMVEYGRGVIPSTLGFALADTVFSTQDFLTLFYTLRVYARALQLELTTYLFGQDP

[4] = Displacement of [3H]di-o-toylguanidine from sigma 2 receptor in rat liver homogenates; format: tissue-based
[5] = molecular target: Kappa-type opioid receptor (Homo sapiens, UniProt P41145); experiment: Displacement of [3H]U69593 from kappa opioid receptor
Kappa-type opioid receptor (Homo sapiens, UniProt P41145), sequence (P41145 whole entry): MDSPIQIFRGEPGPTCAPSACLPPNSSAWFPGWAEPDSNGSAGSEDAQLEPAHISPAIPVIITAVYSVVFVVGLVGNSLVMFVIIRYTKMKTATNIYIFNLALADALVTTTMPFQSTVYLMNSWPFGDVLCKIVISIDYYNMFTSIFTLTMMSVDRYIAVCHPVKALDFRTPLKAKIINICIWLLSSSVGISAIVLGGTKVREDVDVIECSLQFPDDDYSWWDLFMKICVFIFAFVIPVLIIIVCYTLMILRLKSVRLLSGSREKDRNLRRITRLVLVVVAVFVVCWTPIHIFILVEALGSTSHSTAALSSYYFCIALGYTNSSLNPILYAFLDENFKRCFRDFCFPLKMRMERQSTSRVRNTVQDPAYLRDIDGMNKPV

SMILES	Ki [1]	Ki (Mu-type opioid receptor)	Ki [2]	Ki [3]	Ki [4]	Ki [5]
O=C(Cc1ccc(Cl)c(Cl)c1)N1CC2CCCC(N3CCCC3)C1CN2Cc1ccccc1 (racemic; 14)	378 nM	> 1000 nM	150 nM	221 nM	> 1000 nM	–
COC(=O)N1CCN(C(=O)Cc2ccc(Cl)c(Cl)c2)[C@H](CN2CCCC2)C1	–	–	–	–	–	0.45 nM
COc1ccc(CN2CC3CCCC(N4CCCC4)C2CN3Cc2ccccc2)cc1 (stereo in doubt; 25)	–	–	–	238 nM	203 nM	–
COc1ccc(CN2CC3CCCC(N4CCCC4)C2CN3Cc2ccccc2)cc1 (racemic)	–	–	–	531 nM	> 1000 nM	–
COC(=O)N1CC2C(N3CCCC3)CCCC1CN2C(=O)Cc1ccc(Cl)c(Cl)c1 (stereo in doubt; 9)	65 nM	> 1000 nM	> 1000 nM	> 1000 nM	> 1000 nM	–
COC(=O)N1CC2C(N3CCCC3)CCCC1CN2C(=O)Cc1ccc(Cl)c(Cl)c1 (racemic)	333 nM	> 1000 nM	> 1000 nM	452 nM	–	–
COC(=O)N1CCN(C(=O)Cc2ccc(Cl)c(Cl)c2)[C@@H]([C@@H](C)N2CCCC2)C1	–	–	–	–	–	0.31 nM
CC(C)=CCN1CC[C@]2(C)c3cc(O)ccc3C[C@H]1[C@H]2C [(+)-PENTAZOCINE]	–	–	–	–	58 nM	–
O=C(Cc1ccc(Cl)c(Cl)c1)N1CCN2CC[C@@H](N3CCCC3)[C@H]1C2 (relative stereo)	> 1000 nM	–	–	–	–	–
O=C(Cc1ccc(Cl)c(Cl)c1)N1CC2CCCC(N3CCCC3)C1CN2Cc1ccccc1 (racemic; 26)	314 nM	> 1000 nM	324 nM	175 nM	–	–
O=C(Cc1ccc(Cl)c(Cl)c1)N1CCN2CC[C@H](N3CCCC3)[C@H]1C2 (relative stereo)	73 nM	–	–	–	–	–
